SMILES | melting point
CC(=O)NC(Cc1ccc(CC(=O)OC(C)(C)C)cc1)C(=O)OCc1ccccc1 (stereo not given) | 170 to 172 °C
CCOC(=O)c1cc(=O)c2cccc(NC(=O)c3ccc4c(c3)CC(CSCc3ccccc3)O4)c2o1 (stereo not given) | 175 to 177 °C
N#Cc1csc(CN2C(=O)C3(COc4cc5c(cc43)OCO5)c3ccccc32)c1 (stereo not given) | 207 to 209 °C
COc1cc2cc3c(=O)c(C#N)c[nH]c3cc2cc1O | > 300 °C
CCOC(C)O[C@H]1C(=O)N[C@H]1C=Cc1ccccc1 (stereo not given in full) | 98 to 99 °C
Cn1cc(C(=O)O)c(=O)c2cc3cc(F)c(N4CCNC(c5ccccc5)C4)c(F)c3nc21 (racemic) | 298 °C
Cc1oc(-c2ccccc2)nc1CCC(O)c1ccc(CCCC2OC(=O)NC2=O)cc1 (stereo not given) | 150 to 151 °C
CC(=NCCO)c1ccccc1NC(=O)C(Cl)(Cl)Cl | 182 °C
COc1cc(CSc2nc3cnccc3[nH]2)cc(OC)c1 | 177 to 179 °C
O=[N+]([O-])c1ccc2c(c1)S(=O)(=O)c1cc([N+](=O)[O-])ccc1-2 | 282 to 287 °C
CCOC(=O)c1cc(NC(=O)C(Cc2ccccc2)NC(=O)OC(C)(C)C)c[nH]1 (stereo not given) | 148 to 151 °C
CCOC(=O)c1c(-c2ccccc2Cl)c2cc(Cl)ccc2[nH]c1=O | 223 to 224 °C
COCC(=O)Nc1cc2c(cc1Br)CCC2 | 84 to 86 °C
O=S(=O)(NCCCn1cncn1)c1ccc(Cl)cc1 | 77 to 79 °C
CCc1oc2ccccc2c1C(=O)N(C)Cc1ccc2cc(O)ccc2c1 | 80 to 90 °C
C=CCC(C(=O)NC)c1ccc(F)cc1 (stereo not given) | 104 to 105 °C
CCOC(=O)Cn1c(=O)n(Cc2ccc(Cl)c(Cl)c2)c(=O)c2c(C)c(Cl)sc21 | 141 to 145 °C

SMILES | melting point
CC(C)(C)N1CC=C(c2c[nH]c(-c3ccc(F)cc3)c2-c2ccncc2)CC1 | 242 to 244 °C
CS(=O)(=O)c1ccc(-c2sc(COc3cccc(Cl)c3)nc2-c2ccc(F)cc2)cc1 | 128 to 131 °C
Cc1cccc(C)c1NC(=O)CN1CCN(CCC(c2ccc(F)cc2)c2ccc(F)cc2)C(C(N)=O)C1 (stereo not given) | 143 °C
CN1C(=O)C(C)(C)N=C(c2ccccc2Cl)c2cc([N+](=O)[O-])ccc21 | 177 to 178 °C
CNC(=O)NCCSCc1ccccn1 | 63 to 66 °C
CCOCCc1c(-c2ccccc2)n2nnnc2n2ncnc12 | 114 °C
O=C1Nc2cccc(-c3cccc(Cl)c3)c2/C1=C/c1ccc[nH]1 | 165 to 167 °C
O=c1[nH]c2cc(Cl)ccc2n1C1CCN(Cc2cccc(-c3ccc(Cl)cc3)n2)CC1 | 203 to 205 °C
CCNC(=O)CCCC1CCN(Cc2cnc3cc(NC(=O)c4ccc(-c5ccc(F)cc5)cc4)ccc3c2)CC1 | 209 to 213 °C
CN(CCOc1ccc(CCO)cc1)c1nc2ccccc2o1 | 95 to 97 °C
CCOc1cc2ncc(C#N)c(CC(=O)c3ccc(Br)cc3)c2cc1OCC | 210 to 213 °C
O=C(O)COc1cccc2c1Cc1sc(S(=O)(=O)CCCC(c3ccccc3)c3ccccc3)nc1-2 | 97 to 101 °C
Cn1cc(-c2cc3cccnc3[nH]2)c2cc(OCC(=O)O)ccc21 | > 300 °C
COc1cn(-c2ccc(N3CCN(C(C)(C)C)C3=O)cc2F)nc(-c2ccnn2-c2ccccc2)c1=O | 238 to 239 °C
OCc1cn2c(n1)sc1ccccc12 | 131 °C
N#Cc1ccc(N2C(=O)NC3(CCS(=O)(=O)CC3)C2=O)cc1C(F)(F)F | 257 to 258 °C

Results, then the compound that gave them:

melting point | SMILES
145 to 150 °C | COc1ccc(OC)c2nccnc12
192 °C | O=S(=O)(NCCO)c1cccc(-c2cc(-c3nc(-c4ccc(C(F)(F)F)cc4)cc(C(F)(F)F)n3)ccn2)c1
200 °C | O=C(O)COc1cc(Cl)ccc1C(=O)NCc1cccc([N+](=O)[O-])c1
232 to 233 °C | CC(C)(C)c1cc(C=C2Sc3ccccc3N(CP(=O)(O)O)C2=O)cc(C(C)(C)C)c1O
144 to 145 °C | COc1ccc(C2=NN(c3ccccc3C)C(=O)[C@H]3CC=CC[C@@H]23)cc1OC (relative stereo)
115 to 120 °C | CN1C(=O)C(CC(NC(=O)c2ccc(Cl)cc2)C(=O)O)c2ccccc21 (stereo not given)
186 to 188 °C | Cc1c(F)cc(C(=O)O)c(Cl)c1[N+](=O)[O-]
114 to 118 °C | N#Cc1ccc(-c2ccc(OCCC(=O)NO)cc2)cc1
158 to 161 °C | CCCc1nc2c(N)nc(Cl)c(C)c2n1CCOCCN
172 to 174 °C | CCOc1cc(N)c(Cl)cc1C(=O)NCC1CN(CC2CCN(Cc3cccc(F)c3)CC2)CCO1 (stereo not given)
191 to 193 °C | C[C@@H]1OC(=O)C2=C[C@H]3CCCC[C@@H]3[C@@H](O)[C@H]21
104 to 105 °C | C[C@@H](O)CNC(=O)N1CC(c2ccc(F)cc2)C1
216 to 217 °C | CCOC(=O)c1ncn2c1c(=O)n(CC)c1ncccc12
211 to 213 °C | O=c1[nH]c(=O)n(CCCCN2CCC(OC(c3ccccc3)c3ccccc3)CC2)c2ccc([N+](=O)[O-])cc12
198 to 202 °C | Cc1cccc(N2CC(=O)N(c3ccc(S(N)(=O)=O)cc3Cl)C2)c1
114 to 115 °C | O=C(O)C=C(c1cccc(Cl)c1)c1cccc(Cl)c1
210 to 211 °C | CC(=O)N1CCN(CCCOc2ccc(NC(=O)c3cc(F)cc(N4CCCCC4)c3)c3ccccc23)CC1
80 to 82 °C | Cc1ccc(C(F)C(F)(F)S(=O)(=O)c2ccccc2)cc1 (stereo not given)
183 to 185 °C | COC(=O)c1coc(CN2C(=O)C3(COc4cc5c(cc43)OCO5)c3ccccc32)n1 (stereo not given)

melting point | SMILES
192 to 194 °C | Cn1c(C(F)(F)F)cc(=O)n(-c2ccc(Cl)c(CO)c2)c1=O
131 °C | CCOC1=Cc2ccccc2N(C)c2ccc(Br)cc21
129 to 131 °C | COc1ccc(-c2cc3cc(OC)cc(C=C(Cl)Cl)c3o2)cc1
83.5 to 85 °C | Oc1ccc(Oc2ccc(Br)cc2F)cc1
170 to 175 °C | Nc1cc(Oc2ccncc2)ccc1[N+](=O)[O-]
200 to 204 °C | COc1ccc2c(c1)C(CC(=O)O)=C(C)C2=Cc1ccc(S(C)=O)cc1 (stereo not given)
151 to 155 °C | COC(=O)c1cscc1NC(=O)COc1ccc(-c2ccccc2Cl)cn1
113 °C | CC(C)(C)c1cc2c(c(C(C)(C)C)c1O)CCO2
86 to 87.5 °C | COC(=O)c1cc2c(Br)csc2nc1C(=O)OC
124 to 126 °C | COc1ccc2cc([C@H](C)C(=O)OCC(CO)(CO)[N+](=O)[O-])ccc2c1
47 to 49 °C | CCC(C(=O)N(CC)CC)n1cc(Cl)c(-c2ccccc2)n1 (stereo not given)
98 to 99 °C | COCC1CN(c2ccc3ccc(N)cc3c2)C(=O)O1 (stereo not given)
85 to 86 °C | CC(C)n1nc(CC(=O)c2cccc(Cl)c2)ccc1=O
180 to 185 °C | CC(C)N1CC([N+](=O)[O-])=C(NCC(=O)O)C1=O
135 to 136 °C | CN1CCC(O)(c2ccccc2N)CC1
111 °C | CC(=O)c1ccccc1NC(=O)CN1CCN(CCCC=C(c2ccc(F)cc2)c2ccc(F)cc2)C(C(N)=O)C1 (stereo not given)
148 to 150 °C | O=C1N[C@@H](Cc2ccccc2)[C@@H](COS(=O)(=O)c2ccc([N+](=O)[O-])cc2)O1
139 to 140 °C | C=C(C)c1ccccc1N1CCN(C(=O)Nc2cc(C)c(C)nc2OC)CC1
